Active and inactive are the calls of the source. No cut-off for these calls is given here.
Columns and labels:
[1] = target: Cholinesterase (Equus caballus) (UniProt P81908); test: Inhibition of equine serum BChE at 20 uM using butyrylthiocholine iodide as substrate preincubated for 10 mins followed by substrate addition by Ellman's method
[2] = target: T1, Acetylcholinesterase (Homo sapiens, UniProt P22303)
Description: Inhibition of human erythrocyte AChE using acetylthiocholine iodide as substrate preincubated for 10 mins followed by substrate addition by Ellman's method

[3] = target: T2, Cholinesterase (Equus caballus, UniProt P81908)
Description: Inhibition of equine serum BChE using butyrylthiocholine iodide as substrate preincubated for 10 mins followed by substrate addition by Ellman's method

[4] = target: T1, Acetylcholinesterase; test: Inhibition of human erythrocyte AChE at 20 uM using acetylthiocholine iodide as substrate preincubated for 10 mins followed by substrate addition Ellman's method
[5] = target: T3, Liver carboxylesterase (Sus scrofa, UniProt Q29550)
T3 sequence (Q29550 whole entry): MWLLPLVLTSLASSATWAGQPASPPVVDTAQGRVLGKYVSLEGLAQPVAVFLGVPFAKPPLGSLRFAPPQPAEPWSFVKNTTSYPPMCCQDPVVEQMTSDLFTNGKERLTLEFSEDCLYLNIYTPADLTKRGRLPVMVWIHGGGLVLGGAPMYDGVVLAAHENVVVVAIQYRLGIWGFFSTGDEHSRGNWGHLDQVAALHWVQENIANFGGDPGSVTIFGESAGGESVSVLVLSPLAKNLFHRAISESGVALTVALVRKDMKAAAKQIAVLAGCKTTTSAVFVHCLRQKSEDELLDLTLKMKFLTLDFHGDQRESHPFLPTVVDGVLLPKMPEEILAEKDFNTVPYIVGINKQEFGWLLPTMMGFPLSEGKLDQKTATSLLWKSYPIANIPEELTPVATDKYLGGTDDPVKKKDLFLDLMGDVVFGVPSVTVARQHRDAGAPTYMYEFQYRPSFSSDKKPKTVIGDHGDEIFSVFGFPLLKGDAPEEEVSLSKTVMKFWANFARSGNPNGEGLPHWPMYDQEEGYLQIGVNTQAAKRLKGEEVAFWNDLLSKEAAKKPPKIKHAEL
Description: Inhibition of pig liver carboxylesterase using 4-nitrophenol acetate as substrate by spectrophotometric analysis

[6] = target: T3, Liver carboxylesterase; test: in vitro; conditions: pig, probe 4-nitrophenol acetate
Description: Inhibition of pig liver carboxylesterase at 20 uM using 4-nitrophenol acetate as substrate by spectrophotometric analysis

[7] = target: T1, Acetylcholinesterase; test: Non-competitive inhibition of human […] AChE using acetylthiocholine iodide as substrate preincubated for 10 mins followed by substrate addition by Lineweaver-Burk double reciprocal kinetic plot analysis
[8] = target: Cholinesterase (Equus caballus) (UniProt P81908); test: Non-competitive inhibition of equine serum BChE using butyrylthiocholine iodide as substrate preincubated for 10 mins followed by substrate addition by Lineweaver-Burk double reciprocal kinetic plot analysis
[9] = target: T1, Acetylcholinesterase; remark: listed apart in the source
Description: Competitive inhibition of human serum AChE using acetylthiocholine iodide as substrate preincubated for 10 mins followed by Lineweaver-Burk double reciprocal kinetic plot analysis

[10] = target: T2, Cholinesterase; remark: listed apart in the source
Description: Competitive inhibition of equine serum BChE using butyrylthiocholine iodide as substrate preincubated for 10 mins followed by substrate addition by Lineweaver-Burk double reciprocal kinetic plot analysis

T1 sequence (P22303 whole entry): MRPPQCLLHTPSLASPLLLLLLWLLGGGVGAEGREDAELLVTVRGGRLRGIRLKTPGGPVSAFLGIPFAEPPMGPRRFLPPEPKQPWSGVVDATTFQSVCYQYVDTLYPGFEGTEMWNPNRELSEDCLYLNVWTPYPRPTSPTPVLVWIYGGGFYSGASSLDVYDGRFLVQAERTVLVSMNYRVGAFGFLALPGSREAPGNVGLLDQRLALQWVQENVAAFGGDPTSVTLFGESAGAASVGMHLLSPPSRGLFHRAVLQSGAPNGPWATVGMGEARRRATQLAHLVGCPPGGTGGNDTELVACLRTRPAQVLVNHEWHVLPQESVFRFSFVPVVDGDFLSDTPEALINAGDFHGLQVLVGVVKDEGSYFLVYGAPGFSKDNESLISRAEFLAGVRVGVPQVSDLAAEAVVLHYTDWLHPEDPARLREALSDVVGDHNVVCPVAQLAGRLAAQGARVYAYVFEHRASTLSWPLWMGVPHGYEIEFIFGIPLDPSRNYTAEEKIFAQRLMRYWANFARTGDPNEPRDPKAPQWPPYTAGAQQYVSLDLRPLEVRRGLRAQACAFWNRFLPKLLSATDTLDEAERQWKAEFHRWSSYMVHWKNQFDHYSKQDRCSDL
Cholinesterase (Equus caballus), sequence (P81908 whole entry): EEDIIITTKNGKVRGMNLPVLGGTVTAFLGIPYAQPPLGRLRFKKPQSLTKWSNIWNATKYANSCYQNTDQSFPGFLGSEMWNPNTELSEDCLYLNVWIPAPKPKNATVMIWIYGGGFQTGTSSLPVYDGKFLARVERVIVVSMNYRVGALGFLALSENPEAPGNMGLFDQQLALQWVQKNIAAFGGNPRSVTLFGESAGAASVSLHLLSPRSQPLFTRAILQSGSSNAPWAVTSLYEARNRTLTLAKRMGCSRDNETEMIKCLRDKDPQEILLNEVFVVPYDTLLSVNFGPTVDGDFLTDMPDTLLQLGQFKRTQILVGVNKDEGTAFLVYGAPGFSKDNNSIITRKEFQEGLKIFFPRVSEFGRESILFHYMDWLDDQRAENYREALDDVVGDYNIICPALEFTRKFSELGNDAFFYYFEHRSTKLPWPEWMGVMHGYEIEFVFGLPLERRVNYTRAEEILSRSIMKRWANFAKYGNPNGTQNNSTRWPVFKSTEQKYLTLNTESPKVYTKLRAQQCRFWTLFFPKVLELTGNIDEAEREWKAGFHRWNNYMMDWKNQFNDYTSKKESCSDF
T2 sequence (P81908 whole entry): as above

Row | Compound | inhibition [1] | IC50 [2] [µM] | IC50 [3] [µM] | inhibition [4] | IC50 [5] [µM] | inhibition at 20 µM [6] [%] | alphaKi [7] [µM] | alphaKi [8] [µM] | Ki [9] [µM] | Ki [10] [µM]
1 | Cc1cc(-c2c3ccccc3[n+](C)c3ccccc23)cc(C)c1C | 14.2% | 60.1 | > 20 | – | – | – | – | – | – | –
2 | CN1c2ccccc2C(c2cc(C(C)(C)C)c(O)c(C(C)(C)C)c2)c2ccccc21 | 10.4% | – | > 20 | inactive | > 20 | 23.6 | – | – | – | –
3 | C[n+]1c2ccccc2c(N)c2ccccc21 | – | 39.5 | 4.83 | – | – | – | – | – | – | –
4 | CN1c2ccccc2C(N2CCOCC2)c2ccccc21 | – | 12.3 | 0.46 | – | > 20 | 16.4 | 19.6 | 1.17 | 4.01 | 0.41
5 | Cc1ccc(-c2c3ccccc3[n+](C)c3ccccc23)cc1 | – | 41.5 | 40.7 | – | > 20 | 16.3 | – | – | – | –
6 | C[n+]1c2ccccc2c(-c2cc(C(C)(C)C)cc(C(C)(C)C)c2O)c2ccccc21 | – | > 20 | 2.74 | 16.7% | > 20 | 31.2 | – | 4.75 | – | 1.46
7 | CN1c2ccccc2C(c2ccc(N)cc2)c2ccccc21 | – | – | 66.5 | inactive | – | – | – | – | – | –
8 | Cc1ccc(C2c3ccccc3N(C)c3ccccc32)cc1 | 10.6% | > 20 | > 20 | 5.1% | – | – | – | – | – | –
9 | CN1c2ccccc2C(c2cc(C(C)(C)C)cc(C(C)(C)C)c2O)c2ccccc21 | 13.4% | – | > 20 | inactive | – | – | – | – | – | –
10 | C[n+]1c2ccccc2c(-c2ccc(NC(=O)C(F)(F)F)cc2)c2ccccc21 | 7.7% | 36.5 | > 20 | – | > 20 | 7.2 | – | – | – | –
11 | O=[N+]([O-])c1ccc(OP(=O)(O)Oc2ccc([N+](=O)[O-])cc2)cc1 | inactive | – | – | inactive | – | – | – | – | – | –
12 | CN1c2ccccc2C(n2cnc([N+](=O)[O-])n2)c2ccccc21 | – | 16.7 | 1.17 | – | > 20 | 10.6 | – | – | – | –
13 | CN1c2ccccc2C(n2c3ccccc3c3ccccc32)c2ccccc21 | – | > 20 | 13 | 5.6% | – | – | – | – | – | –
14 | CN1c2ccccc2C(c2ccc(NC(=O)C(F)(F)F)cc2)c2ccccc21 | 7.1% | – | > 20 | inactive | – | – | – | – | – | –
15 | CN1c2ccccc2C(c2cccs2)c2ccccc21 | 12.3% | – | > 20 | inactive | > 20 | 11.1 | – | – | – | –
16 | CCN(CC)c1ccc(-c2c3ccccc3[n+](C)c3ccccc23)cc1 | – | 25.2 | 3.35 | – | – | – | 28 | 4.22 | 13.2 | 0.94

Row | Compound | inhibition [1] | IC50 [2] [µM] | IC50 [3] [µM] | inhibition [4] | IC50 [5] [µM] | inhibition at 20 µM [6] [%] | alphaKi [7] [µM] | alphaKi [8] [µM] | Ki [9] [µM] | Ki [10] [µM]
17 | C[n+]1c2ccccc2c(-c2cccs2)c2ccccc21 | – | 40.9 | 58.3 | – | > 20 | 6.1 | – | – | – | –
18 | CN1c2ccccc2C(N2CCSCC2)c2ccccc21 | – | 11.8 | 0.84 | – | > 20 | 5 | – | 1.31 | 3.75 | 0.35
19 | C[n+]1c2ccccc2c(-c2ccc(F)cc2)c2ccccc21 | 8.2% | 32.3 | > 20 | – | > 20 | 5.9 | – | – | – | –
20 | CN1c2ccccc2C(c2ccc(F)cc2)c2ccccc21 | 11.1% | – | > 20 | inactive | – | – | – | – | – | –
21 | COc1ccc(-c2c3ccccc3[n+](C)c3ccccc23)cc1 | – | 13.7 | 58.5 | – | > 20 | 7.8 | – | – | – | –
22 | C[n+]1c2ccccc2c(-c2ccc(N)cc2)c2ccccc21 | – | 7.62 | 39.1 | – | > 20 | 18.6 | 8.95 | 55.4 | 2.66 | 19
23 | Cc1cc(-c2c3ccccc3[n+](C)c3ccccc23)cc(C)c1O | – | 49.8 | 61.8 | – | – | – | – | – | – | –
24 | CCCCNc1c2ccccc2[n+](C)c2ccccc12 | – | > 20 | 15.7 | 16.8% | – | – | – | – | – | –
25 | CN1c2ccccc2C(n2nnc3ccccc32)c2ccccc21 | – | 12.4 | 1.08 | – | > 20 | 15.3 | 17.9 | 2.13 | 6.43 | 0.49
26 | CN1c2ccccc2C(n2cncn2)c2ccccc21 | – | 18.8 | 0.81 | – | > 20 | 5.4 | – | 0.72 | 3.34 | 0.16
27 | CC(=O)Nc1ccc(-c2c3ccccc3[n+](C)c3ccccc23)cc1 | – | 54.3 | 35.1 | – | – | – | – | – | – | –
28 | C[n+]1c2ccccc2c(-c2ccccc2)c2ccccc21 | – | 61.3 | 51.9 | – | > 20 | 22.6 | – | – | – | –
29 | CC(=O)Nc1ccc(C2c3ccccc3N(C)c3ccccc32)cc1 | 10.8% | – | > 20 | inactive | > 20 | 7.2 | – | – | – | –
30 | CN1c2ccccc2C(c2ccccc2)c2ccccc21 | – | – | 62.1 | inactive | – | – | – | – | – | –
31 | C[n+]1c2ccccc2c(-c2c(O)ccc3ccccc23)c2ccccc21 | – | > 20 | 50.8 | 7.3% | > 20 | 8.9 | – | – | – | –
32 | COc1ccc(C2c3ccccc3N(C)c3ccccc32)cc1 | 11.6% | > 20 | > 20 | 9.3% | – | – | – | – | – | –

— ChEMBL document CHEMBL4043268 (Bioorg Med Chem, 2017)
